Data: PubChem BioAssay (NCI)
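Following 48 hours of exposure in 96-well plates, responses at five concentrations were used to interpolate endpoints linearly. TGI is the concentration that stops growth completely.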

What was measured:
Test in all cases: NCI tumour cell line growth inhibition, 48 h
DMS 273 small cell lung = system: DMS 273 small cell lung
M19-MEL melanoma = system: M19-MEL melanoma
CCRF-CEM leukemia = system: CCRF-CEM leukemia
OVCAR-4 ovarian = system: OVCAR-4 ovarian
786-0 renal = system: 786-0 renal
KM20L2 colon = system: KM20L2 colon
COLO 205 colon = system: COLO 205 colon
A549 NSCLC = system: A549 NSCLC
RXF 393 renal = system: RXF 393 renal
NCI-H460 lung = system: NCI-H460 lung
UO-31 renal = system: UO-31 renal
K-562 leukemia = system: K-562 leukemia
HL-60(TB) leukemia = system: HL-60(TB) leukemia
HCT-116 colon = system: HCT-116 colon
NCI-H226 lung = system: NCI-H226 lung
SK-MEL-2 melanoma = system: SK-MEL-2 melanoma
HCC-2998 colon = system: HCC-2998 colon
NCI-H522 lung = system: NCI-H522 lung
HCT-15 colon = system: HCT-15 colon
SK-MEL-5 melanoma = system: SK-MEL-5 melanoma
U251 CNS = system: U251 CNS
DLD-1 colon = system: DLD-1 colon
OVCAR-3 ovarian = system: OVCAR-3 ovarian
SW-620 colon = system: SW-620 colon
SNB-19 CNS = system: SNB-19 CNS
MALME-3M melanoma = system: MALME-3M melanoma
RXF-631 renal = system: RXF-631 renal
LXFL 529 NSCLC = system: LXFL 529 NSCLC
SNB-75 CNS = system: SNB-75 CNS
SF-539 CNS = system: SF-539 CNS
SF-268 CNS = system: SF-268 CNS
SK-MEL-28 melanoma = system: SK-MEL-28 melanoma
SK-OV-3 ovarian = system: SK-OV-3 ovarian
HOP-62 NSCLC = system: HOP-62 NSCLC
ACHN renal = system: ACHN renal
IGROV1 ovarian = system: IGROV1 ovarian
HOP-92 NSCLC = system: HOP-92 NSCLC
RPMI-8226 leukemia = system: RPMI-8226 leukemia
EKVX NSCLC = system: EKVX NSCLC
OVCAR-5 ovarian = system: OVCAR-5 ovarian
SF-295 CNS = system: SF-295 CNS
M14 melanoma = system: M14 melanoma
MOLT-4 leukemia = system: MOLT-4 leukemia
OVCAR-8 ovarian = system: OVCAR-8 ovarian
KM12 colon = system: KM12 colon
HOP-18 NSCLC = system: HOP-18 NSCLC
CAKI-1 renal = system: CAKI-1 renal
UACC-62 melanoma = system: UACC-62 melanoma
UACC-257 melanoma = system: UACC-257 melanoma
SR leukemia = system: SR leukemia
NCI-H23 lung = system: NCI-H23 lung
SN12C renal = system: SN12C renal
HT29 colon = system: HT29 colon
XF 498 CNS = system: XF 498 CNS
TK-10 renal = system: TK-10 renal
SNB-78 CNS = system: SNB-78 CNS
DMS 114 small cell lung = system: DMS 114 small cell lung
A498 renal = system: A498 renal
LOX IMVI melanoma = system: LOX IMVI melanoma

Measured: TGI

CC[C@@H]1OC2(C)CC(S(=O)(=O)c3ccccc3O)CC1O2 (stereo not given in full)
not listed: HT29 colon | XF 498 CNS | TK-10 renal | SNB-78 CNS | DMS 114 small cell lung | A498 renal | LOX IMVI melanoma
> 100 µM: all other assays above

O=C1c2ccccc2-c2cccc3ccc(Cc4ccc5ccccc5c4)c1c23
not listed: NCI-H226 lung | LXFL 529 NSCLC | SK-OV-3 ovarian | HOP-18 NSCLC | CAKI-1 renal | SR leukemia | DMS 114 small cell lung | A498 renal | LOX IMVI melanoma
> 100 µM: all other assays above

O=C(Nc1ccc(Cl)cc1Cl)C(=O)Nn1c(=S)[nH]c2ccccc2c1=O
> 100 µM: DMS 273 small cell lung | M19-MEL melanoma | CCRF-CEM leukemia | 786-0 renal | DMS 114 small cell lung | A549 NSCLC | RXF 393 renal | NCI-H460 lung | UO-31 renal | K-562 leukemia | HL-60(TB) leukemia | HCT-116 colon | SK-MEL-2 melanoma | HCC-2998 colon | NCI-H522 lung | HCT-15 colon | U251 CNS | OVCAR-3 ovarian | MALME-3M melanoma | RXF-631 renal | LXFL 529 NSCLC | SF-268 CNS | SK-MEL-28 melanoma | SK-OV-3 ovarian | RPMI-8226 leukemia | SNB-78 CNS | M14 melanoma | MOLT-4 leukemia | HOP-18 NSCLC | SR leukemia

COc1cc(Cl)c2c3c(c(C(C)=O)oc13)CCC2
not listed: UO-31 renal | NCI-H226 lung | SK-MEL-2 melanoma | NCI-H522 lung | MALME-3M melanoma | SF-268 CNS | OVCAR-5 ovarian | MOLT-4 leukemia | KM12 colon | SR leukemia | XF 498 CNS
> 100 µM: all other assays above

CCN(CC)CSc1nc2ccccc2o1
not listed: OVCAR-4 ovarian | 786-0 renal | KM20L2 colon | COLO 205 colon | K-562 leukemia | NCI-H226 lung | SK-MEL-2 melanoma | HCC-2998 colon | HCT-15 colon | SK-MEL-5 melanoma | DLD-1 colon | OVCAR-3 ovarian | SW-620 colon | MALME-3M melanoma | LXFL 529 NSCLC | SNB-75 CNS | SF-539 CNS | SF-268 CNS | RPMI-8226 leukemia | HOP-18 NSCLC | CAKI-1 renal | SN12C renal | XF 498 CNS | LOX IMVI melanoma
> 100 µM: all other assays above
